Measured values reported in PubChem BioAssay (NCI).
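Test compounds were applied to cells in 96-well plates for 48 hours at 5 doses. GI50 is the concentration that inhibits growth by half. TGI denotes the concentration required for complete inhibition of growth.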

How the values were obtained:
Assay in all cases: growth of human tumour cells (NCI), 48 h
[1] = system: SR leukemia
[2] = system: SF-539 CNS
[3] = system: UACC-257 melanoma
[4] = system: A549 NSCLC
[5] = system: HT29 colon
[6] = system: TK-10 renal
[7] = system: A498 renal
[8] = system: CAKI-1 renal
[9] = system: SK-MEL-2 melanoma
[10] = system: BT-549 breast

Row | Compound | TGI [1] | TGI [2] | TGI [3] | TGI [4] | TGI [5] | TGI [6] | TGI [7] | TGI [8] | TGI [9] | TGI [10] | GI50 [1] | GI50 [2] | GI50 [9] | GI50 [3] | GI50 [4] | GI50 [5] | GI50 [6] | GI50 [10] | GI50 [8] | GI50 [7]
1 | CC(=O)C1(O)CC2(c3ccccc3)C(=O)C1(c1ccccc1)C(c1ccccc1)=C2c1ccccc1 (centres undefined) | > 100 µM | > 100 µM | > 100 µM | > 100 µM | > 100 µM | > 100 µM | > 100 µM | > 100 µM |  |  |  |  |  |  |  |  |  |  |  | 
2 | COc1ccc2c(c1)[C@@H](NC(C)=O)CCc1cc(OC)c(OC)c(OC)c1-2 | > 90.2 µM | < 0.0154 µM | > 100 µM | > 100 µM | 0.124 µM | > 100 µM | > 100 µM | 99 µM | > 21.5 µM |  |  |  |  |  |  |  |  |  |  | 
3 | O=C1C2C3CC4C5C3C1C5C1(SCCS1)C42 (centres undefined) | > 100 µM | > 100 µM | > 100 µM | > 100 µM |  | > 100 µM | > 100 µM | > 100 µM | > 100 µM |  |  |  |  |  |  |  |  |  |  | 
4 | O=C(O)/C=C/c1ccc(O)c(O)c1 |  | > 100 µM | > 100 µM | > 100 µM | > 100 µM | > 100 µM | > 100 µM | > 100 µM | > 100 µM |  |  |  |  |  |  |  |  |  |  | 
5 | O=S1OC(c2ccccc2)(c2ccccc2)C(c2ccccc2)(c2ccccc2)O1 | > 100 µM | > 100 µM | > 100 µM | > 100 µM | > 100 µM | > 100 µM | > 100 µM |  |  |  |  |  |  |  |  |  |  |  |  | 
6 | Cn1cc(C2NC(=O)c3ccccc3N2)c2ccccc21 (centres undefined) |  | 6.87 µM | > 100 µM | > 100 µM | 0.86 µM | > 100 µM | > 100 µM | > 100 µM |  | > 100 µM |  |  |  |  |  |  |  |  |  | 
7 | C=CCc1cccc(C=O)c1O | > 100 µM | > 100 µM | > 100 µM | > 100 µM | > 100 µM | > 100 µM |  | > 100 µM | > 100 µM | > 100 µM | 22 µM | 30.1 µM | > 100 µM | > 100 µM | > 100 µM | 67.9 µM | > 100 µM | 10.4 µM | > 100 µM | 
8 | O=C(NCc1cn(Cc2cccc(Oc3ccccc3)c2)nn1)c1cccnc1Nc1ccc(F)cc1 |  | > 100 µM | > 100 µM | > 100 µM | > 100 µM | > 100 µM | 95.1 µM | > 100 µM | > 100 µM | > 100 µM |  | 15.1 µM | 34.2 µM | 6.87 µM | 6.11 µM | 5.6 µM | 24.5 µM | 45.6 µM | 64.2 µM | 13.7 µM
9 | NC1=C(O)c2cccc3cccc(c23)C1=O |  | > 100 µM | > 100 µM | > 100 µM | > 100 µM | > 100 µM | > 100 µM | > 100 µM | > 100 µM |  |  |  |  |  |  |  |  |  |  | 
10 | CC(C)=CCC/C(C)=C/CC/C(C)=C/CSC[C@H](NC(=O)CCCCCN1CCN(C)CC1)C(=O)NC1CCCCCC1 | 5.35 µM | 3.38 µM | 3.63 µM | 7.4 µM | 4.74 µM | 9.11 µM | 16.7 µM | 9.19 µM | 4.42 µM |  | 1.98 µM | 1.89 µM | 2.24 µM | 1.85 µM | 2.5 µM | 2.19 µM | 4.4 µM |  | 2.84 µM | 3.76 µM
11 | Cc1ccc(S(=O)c2ccccc2[N+](=O)[O-])cc1 (centres undefined) | > 100 µM | > 100 µM | > 100 µM | > 100 µM | > 100 µM | > 100 µM | 88.1 µM | > 100 µM | > 100 µM |  |  |  |  |  |  |  |  |  |  | 
12 | O=c1nc2n(-c3cccc(Cl)c3)c3ccc([N+](=O)[O-])cc3cc-2c(=O)[nH]1 |  | 11.8 µM | > 25 µM | > 25 µM | > 25 µM | 13.9 µM | > 25 µM | 16 µM | > 25 µM | 11.8 µM |  | 4.4 µM | > 25 µM | 9.78 µM | 12.7 µM | 9.06 µM | 7.27 µM | 4.2 µM | 5.71 µM | 16.7 µM
13 | COc1ccc(C(=O)C(C(=O)CCC(=O)Nc2ccc(Cl)c(Cl)c2)c2ccc(OC)cc2)cc1 (centres undefined) |  | > 100 µM | > 100 µM | > 100 µM | > 100 µM | > 100 µM | > 100 µM | > 100 µM | > 100 µM |  |  |  |  |  |  |  |  |  |  | 
14 | C/C(CN1C(=O)c2ccccc2C1=O)=N\NS(=O)(=O)c1ccc2ccccc2c1 | > 100 µM | > 100 µM | > 100 µM | > 100 µM | > 100 µM | > 100 µM | > 100 µM | > 100 µM | > 100 µM |  |  |  |  |  |  |  |  |  |  | 
